Assay results taken from US5169863A, “Hypersphyxia-causing methods” (K.K. Ueno Seiyaku Oyo Kenkyujo, priority 1988, dated 1992).
Like-named read-outs stand apart in the source and are kept apart here.

Columns and labels:
acute toxicity LD50 = assay type: in vivo
[1] = changing rate of blood pressure and heart rate by intravenous injection in anesthetized rats; assay type: in vivo, Wister male rats; settings: Rattus norvegicus, 1 (mg/kg)
Method: (blood pressure, heart rate increasing action by intravenous injection) Wister male rats (8 weeks old) were used as test animals. The rats were applied to anesthesia by intraperitoneal administration with 1.25 g/kg of urethane. The blood pressure was determined by inserting a polyethylene tube into a femoral artery, which was connected with a pressure transducer. The heart rate was determined from R wave of electrocardiograms (ECG) induced by standard limb lead II with a tachometer. Each test compound was dissolved in ethanol and intravenously administered to rats in 1 mg/kg diluted with Ringer's solution just before use. The maximum concentration of ethanol was 2 percent. An ethanol-containing Ringer without any test compound was used as a control to confirm the influence of the ethanol in each experiment. Each changing rate (%) in the blood pressure and heart rate before and after administration was determined, and the average of 3-4 experiments was shown in Table 1. Changing rates of blood pressure and heart rate were determined in the same manner as described in Example 1 except that the test compounds 60, 61 and 62 were used in different concentrations instead of the test compounds 1-55.

[2] = progressing a breath (change rate of breath rate); assay type: in vivo, Wister male rats; settings: Rattus norvegicus, iv, tail vein, rats
Method: Wister male rats (8 weeks old) were applied to anesthesia by intraperitoneal administration with 1.25 g/kg of urethane. A pick-up for breath was fixed on a top of a rat's nose, and the breath curve was recorded on a polygraph while the breath rate was counted with a tachometer.
Each test compound was dissolved in ethanol and administered to rats through a tale vein in 1 mg/kg as diluted with Ringer's solution just before use. The maximum concentration of ethanol was 2 percent. Ringers solution containing ethanol but not containing test compound was administered at every experiment as a control. The change rates (%) of the breath rate before and after administration were determined, and evaluated as progressing activity of breath.

[3] = recovery of blood pressure and heart rate of rats in hemorrhage shock; assay type: in vivo, Wister male rats; settings: intravenous, dehematized rats
Method: (Recovery of blood pressure and heart rate of rats in hemorrhage shock)
Wister male rats (8 weeks old) were applied to anesthesia by subcutaneous injection with 1.5 g/kg of urethane. The blood pressure and heart rate were determined according to the same manner as in Example 1.
The rats were kept for 60 minutes in a room after a blood corresponding to 1.5% of the weight was removed.
13,14-dihydro-6,15-diketo-19-methyl-PGE1 ethyl ester (compound number 15) was dissolved in Ringer's solution (0.1 ml), and the solution was intravenously administered into the above dehematized rat. Ringer's solution was administered to a control group.
The recovery rates of the blood pressure and heart rate were obtained assuming the value at 60 minutes after dehematizing being 0% and the value before dehematizing being 100% respectively. In these FIGS. (1), (2) and (3) represent a dose of 1 mg/kg, dose of 0.5 mg/kg and control respectively.
The same procedure as the above except that the compounds of (7), (18) and (22) were used instead of the compound (15) was applied, and the effects are observed, the results of which are also shown in Table 3.

[4] = changes in blood flow rate in carotid, blood pressure and heart rate; assay type: in vivo, Wister male rats; settings: 1 mg/kg, femoral artery, 4 experiments
Method: Wister male rats (9 weeks old) were used.
The rats were applied to anesthesia by intraperitoneal administration with 1.25 g/kg of urethane. The blood flow rate in carotid was determined by a stromuhr. The blood pressure and heart rate were determined according to the same manner as in Example 1.
13,14-dihydro-6,15-diketo-19-methyl-PGE1 ethyl ester (sample number: 15) was dissolved in a small amount of ethanol, and then diluted with Ringer's solution more than 50 times. About 0.1 ml (1 mg drag/kg rat) of the diluted solution was administered to a rat through a polyethylene tube inserted into a femoral artery. The changes in blood flow rate (BF), blood pressure (BP), heart rate (HR) were observed, and the average of 4 experiments were shown in FIG. 1.

[5] = mouse, in vivo, IP, male mice, read-out: LD50
[6] = Table 1, read-out: changing rate of blood pressure
[7] = Table 1, read-out: changing rate of heart rate
[8] = mouse, in vivo, IV, male mice, read-out: LD50
[9] = mouse, in vivo, PO, male mice, read-out: LD50

**Q.** Which results are given for `CCCCCC(=O)CC[C@H]1[C@H](O)CC(=O)[C@@H]1CCCCCCC(=O)OCC` [Compound 2, 13,14-dihydro-15-keto-PGE1 ethyl ester]?
**A.** LD50 (acute toxicity LD50; [5]): > 1000 mg/kg; change in vivo at 1 mg/kg [1, 6]: 1%; change in vivo at 1 mg/kg [1, 7]: 20%; change in vivo at 1 mg/kg [2]: 47%

**Q.** With `CCCCCC(=O)CC[C@H]1[C@H](O)CC(=O)[C@@H]1CC(=O)CCCCC(=O)OCC` [Compound 7, 13,14-dihydro-6,15-diketo-PGE1 ethyl ester] as the compound, how does the “recovering of blood pressure %” value ([3]; 0.5 mg/kg) read?
**A.** 38%

**Q.** What about the “recovering of heart rate %” value ([3]; 0.5 mg/kg) of the same compound?
**A.** 46%

**Q.** And the “recovering of blood pressure %” value ([3]; 1.0 mg/kg)?
**A.** 63%

**Q.** What about the “recovering of heart rate %” value ([3]; 1.0 mg/kg) of the same compound?
**A.** 62%

**Q.** What about the change in vivo at 1 mg/kg [1, 6] of the same compound?
**A.** 5%

**Q.** And the change in vivo at 1 mg/kg [2]?
**A.** 31%

**Q.** With `CCOC(=O)CCCCC(=O)C[C@H]1C(=O)C[C@@H](O)[C@@H]1CCC(=O)CCCC(C)C` [Compound 15, 13,14-dihydro-6,15-diketo-19-methyl-PGE1 ethyl ester] as the compound, how does the “recovering of blood pressure %” value ([3]; 0.5 mg/kg) read?
**A.** 39%

**Q.** What about the “recovering of heart rate %” value ([3]; 0.5 mg/kg) of the same compound?
**A.** 62%

**Q.** And the “recovering of blood pressure %” value ([3]; 1.0 mg/kg)?
**A.** 68%

**Q.** What about the “recovering of heart rate %” value ([3]; 1.0 mg/kg) of the same compound?
**A.** 100%

**Q.** What about the LD50 (acute toxicity LD50; [8]) of the same compound?
**A.** > 300 mg/kg

**Q.** What about the change in vivo at 1 mg/kg [1, 6] of the same compound?
**A.** 12%

**Q.** And the change in vivo at 1 mg/kg [1, 7]?
**A.** 19%

**Q.** And the change in vivo at 1 mg/kg [2]?
**A.** 26%

**Q.** What about the “change in blood flow rate (BF) in carotid” value ([4]; FIG. 1a) of the same compound?
**A.** extremely increase

**Q.** What about the “change in blood pressure (BP)” value ([4]; FIG. 1b) of the same compound?
**A.** extremely increase

**Q.** What about the “change in heart rate (HR)” value ([4]; FIG. 1c) of the same compound?
**A.** extremely increase

**Q.** What does the source list for `CCCCCC(=O)CC[C@H]1[C@H](C)CC(=O)[C@@H]1CC(=O)CCCCC(=O)OCC` [Compound 18, 13,14-dihydro-6,15-diketo-11-dehydroxy-11R-methyl-PGE1 ethyl ester]?
**A.** recovering of blood pressure % ([3]; 0.5 mg/kg): 87%; recovering of heart rate % ([3]; 0.5 mg/kg): 100%; recovering of blood pressure % ([3]; 1.0 mg/kg): 119%; recovering of heart rate % ([3]; 1.0 mg/kg): 100%; change in vivo at 1 mg/kg [1, 6]: 18%; change in vivo at 1 mg/kg [1, 7]: 17%; change in vivo at 1 mg/kg [2]: 28%

**Q.** For `CCCCCC(=O)CC[C@H]1[C@H](O)CC(=O)[C@@H]1C/C=C\CCCC(=O)OC` [Compound 21, 13,14-dihydro-15-keto-PGE2 methyl ester], which LD50 (acute toxicity LD50; [8]) is on record?
**A.** > 1000 mg/kg

**Q.** What about the change in vivo at 1 mg/kg [1, 6] of the same compound?
**A.** 18%

**Q.** What about the change in vivo at 1 mg/kg [1, 7] of the same compound?
**A.** 35%

**Q.** And the change in vivo at 1 mg/kg [2]?
**A.** 29%

**Q.** With `CCCCCC(=O)CC[C@H]1[C@H](O)CC(=O)[C@@H]1C/C=C\CCCC(=O)OCC` [Compound 22, 13,14-dihydro-15-keto-PGE2 ethyl ester] as the compound, how does the “recovering of blood pressure %” value ([3]; 0.5 mg/kg) read?
**A.** 32%

**Q.** What about the “recovering of heart rate %” value ([3]; 0.5 mg/kg) of the same compound?
**A.** 50%

**Q.** What about the “recovering of blood pressure %” value ([3]; 1.0 mg/kg) of the same compound?
**A.** 74%

**Q.** What about the “recovering of heart rate %” value ([3]; 1.0 mg/kg) of the same compound?
**A.** 63%

**Q.** What about the LD50 (acute toxicity LD50; IP, female mice) of the same compound?
**A.** > 500 mg/kg

**Q.** What about the LD50 (acute toxicity LD50; PO, female mice) of the same compound?
**A.** > 4000 mg/kg

**Q.** And the LD50 (acute toxicity LD50; SC, female mice)?
**A.** > 1000 mg/kg

**Q.** What about the LD50 (acute toxicity LD50; [5]) of the same compound?
**A.** > 500 mg/kg

**Q.** And the LD50 (acute toxicity LD50; [9])?
**A.** > 4000 mg/kg

**Q.** What about the LD50 (acute toxicity LD50; mouse, in vivo, SC, male mice, read-out: LD50) of the same compound?
**A.** > 1000 mg/kg

**Q.** What about the change in vivo at 1 mg/kg [1, 6] of the same compound?
**A.** 5%

**Q.** What about the change in vivo at 1 mg/kg [1, 7] of the same compound?
**A.** 11%

**Q.** What about the change in vivo at 1 mg/kg [2] of the same compound?
**A.** 28%

**Q.** For `CCCCC(F)C(=O)CC[C@H]1[C@H](O)CC(=O)[C@@H]1C/C=C\CCCC(=O)O` (stereo partly drawn) [Compound 36, 13,14-dihydro-15-keto-16R,S-fluoro-PGE2], which LD50 (acute toxicity LD50; [9]) is on record?
**A.** > 500 mg/kg

**Q.** What about the change in vivo at 1 mg/kg [1, 6] of the same compound?
**A.** 33%

**Q.** What about the change in vivo at 1 mg/kg [1, 7] of the same compound?
**A.** 32%

**Q.** For `CCCCC(F)C(=O)CC[C@H]1[C@H](O)CC(=O)[C@@H]1C/C=C\CCCC(=O)OC` (stereo partly drawn) [Compound 37, 13,14-dihydro-15-keto-16R,S-fluoro-PGE2 methyl ester], which LD50 (acute toxicity LD50; [9]) is on record?
**A.** > 500 mg/kg

**Q.** What about the change in vivo at 1 mg/kg [1, 6] of the same compound?
**A.** 56%

**Q.** And the change in vivo at 1 mg/kg [1, 7]?
**A.** 33%
